Key:
[1] = target: T1, GABAB receptor (Mus musculus, UniProt Q80T41+Q9WV18); assay: [35S]GTPγS binding test for PAM action, mouse brain cortical membrane; format: biochemical; conditions: 100 μM GABA = 100%; for EC50: concentration raising reaction rate from 20% with 0.3 μM GABA to 50%, mouse brain cortex membrane, read-out: Potency (PAM Potency of GABAB)
T1 construct: a mouse brain cortex membrane (4 μg); tissue Japan SLC, Inc. (ddY mice); host or cells: mouse brain cortex membrane
Protocol: The function of the GABAB receptor of the compound of the present invention was evaluated using a [^35S] GTPγS binding test. This method is used for the detection of the PAM action of the compound on the GABAB receptor (Journal of Pharmacology and Experimental Therapeutics, 2003, vol. 307(1), p. 322-330; and Molecular Pharmacology, 2001, vol. 60(5), p. 963-971).
The mouse brain cortical membrane was prepared with reference to a method for preparing a rat brain membrane (European Journal of Pharmacology, 1990, vol. 187 (1), p. 27-38).
The cortex (about 30 g) was cut out of the brains of 90 ddY mice (Japan SLC, Inc.). An A buffer was added to the cortex (cortex/A buffer=about 1:3 (wt/vol)), and homogenized with a glass Teflon-lined homogenizer (Teflon: registered trademark) on ice. The homogenate was centrifuged (750 g, 10 min, 4° C.) and a supernatant was then obtained. An A buffer (90 mL) was added to pellets and homogenized on ice, and a supernatant (750 g, 10 min, 4° C.) was then obtained. By repeating this operation, the supernatant was collected.
The supernatant was centrifuged (18000 g, 15 min, 4° C.). Ultrapure water (54 mL) was added to the pellets, left to stand for 30 min on ice, and then centrifuged (39000 g, 20 min, 4° C.). The pellets were suspended in a KH buffer (54 mL), repeatedly frozen and thawed, and centrifuged (18000 g, 15 min) at 4° C. The buffer was added to the pellets and then frozen and thawed, and this operation was repeated until the centrifugation. By a Bradford method using a protein assay (Protein assay CBB solution; Nacalai Tesque, Inc.), a KH buffer suspension of the pellet was prepared at a protein concentration of 10 mg/mL.
The PAM action of the GABAB receptor in the mouse brain cortex of a test drug was evaluated. To each of wells of a 96-well microplate, a test drug diluted with a B buffer at each concentration (3 nM to 30 μM), a mouse brain cortex membrane (4 μg), [^35S] GTPγS (final concentration of 0.34 nM, Muromachi Yakuhin Co., Ltd.; Institute of Isotopes Co., Ltd.), GABA (final concentration of 0.3 μM; Sigma) were added in this order, followed by standing at room temperature for 1 hour. With a harvester (Filtermate, Perkin-Elmer, Inc.), the suspension was suction-filtered through a glass filter (UniFilter 96-well GF/B filter plates, Perkin-Elmer, Inc.). The glass filter was washed with a C buffer that had been ice-cooled. After drying the glass filter, a liquid scintillation cocktail (50 μL, MicroScinti-PS; PerkinElmer, Inc.) was added to each well. The amount of [^35S] GTPγS bound to the membrane was measured on a plate reader (TopCount, PerkinElmer, Inc.).
The maximum reaction rate of 100 μM GABA was taken as 100%. […] At a time when the test drug was not added, the concentration of the test drug that increased the reaction rate from 20% with 0.3 μM GABA to 50% was taken as a PAM Potency (μM) of the GABAB of the test drug. In the presence of 0.3 μM GABA, the maximum reaction rate of the effect on the GABAB receptor when the test drug was administered up to maximum 30 μM was taken as a PAM Efficacy (%) of the GABAB of the test drug.
The Potency and Efficacy of several representative Example Compounds of the present invention are shown in Table below (In the Table, Ex represents Example Compound No. The “Potency” represents the PAM Potency of GABAB of the test drug, and the “Efficacy” represents PAM Efficacy (%) of GABAB of the test drug. These shall apply hereinafter).

[2] = test system: spontaneous alternation behavior (short-term memory impairment); assay: Y-maze test: improvement effect on MK-801-induced cognitive impairment; format: in vivo, mouse; conditions: oral, once, 30 minutes before test; ddY male mice; MK-801 0.15 mg/kg i.p.; spontaneous alternation rate
Protocol: The effect on the improvement of short-term memory impairment of the compound of the present invention was evaluated using a Y-maze test that is an experimental system of spontaneous alternation behavior.
As the Y maze, a maze, in which three runways having a length of one arm of 40 cm, a height of a wall of 13 cm, a width of a floor of 3 cm, and a width of a top of 10 cm are each joined at 120 degrees in a Y shape, was used. […]
The mouse was placed at one end of a certain place in the runway in the Y maze, and then freely explored for 8 minutes, and the runways into which the mice invaded and the order thereof were recorded. The number of the entries of the mice within a measurement time was counted and defined as a total number of entries. Among these, a combination when the mice invaded into different three runways (for example, in a case where the three arms are referred to as a, b, and c, respectively, and the order of the arms with entries is abccbacab, the number was counted as 4, including the repetition) was defined as the number of spontaneous alternation behaviors. For the spontaneous alternation rate, a spontaneous alternation rate calculated by the following equation was taken as an index of spontaneous alternation behavior: Spontaneous alternation rate=number of spontaneous alternation behaviors/(total number of entries−2)×100. […]

T1 sequence (Q9WV18 20-960): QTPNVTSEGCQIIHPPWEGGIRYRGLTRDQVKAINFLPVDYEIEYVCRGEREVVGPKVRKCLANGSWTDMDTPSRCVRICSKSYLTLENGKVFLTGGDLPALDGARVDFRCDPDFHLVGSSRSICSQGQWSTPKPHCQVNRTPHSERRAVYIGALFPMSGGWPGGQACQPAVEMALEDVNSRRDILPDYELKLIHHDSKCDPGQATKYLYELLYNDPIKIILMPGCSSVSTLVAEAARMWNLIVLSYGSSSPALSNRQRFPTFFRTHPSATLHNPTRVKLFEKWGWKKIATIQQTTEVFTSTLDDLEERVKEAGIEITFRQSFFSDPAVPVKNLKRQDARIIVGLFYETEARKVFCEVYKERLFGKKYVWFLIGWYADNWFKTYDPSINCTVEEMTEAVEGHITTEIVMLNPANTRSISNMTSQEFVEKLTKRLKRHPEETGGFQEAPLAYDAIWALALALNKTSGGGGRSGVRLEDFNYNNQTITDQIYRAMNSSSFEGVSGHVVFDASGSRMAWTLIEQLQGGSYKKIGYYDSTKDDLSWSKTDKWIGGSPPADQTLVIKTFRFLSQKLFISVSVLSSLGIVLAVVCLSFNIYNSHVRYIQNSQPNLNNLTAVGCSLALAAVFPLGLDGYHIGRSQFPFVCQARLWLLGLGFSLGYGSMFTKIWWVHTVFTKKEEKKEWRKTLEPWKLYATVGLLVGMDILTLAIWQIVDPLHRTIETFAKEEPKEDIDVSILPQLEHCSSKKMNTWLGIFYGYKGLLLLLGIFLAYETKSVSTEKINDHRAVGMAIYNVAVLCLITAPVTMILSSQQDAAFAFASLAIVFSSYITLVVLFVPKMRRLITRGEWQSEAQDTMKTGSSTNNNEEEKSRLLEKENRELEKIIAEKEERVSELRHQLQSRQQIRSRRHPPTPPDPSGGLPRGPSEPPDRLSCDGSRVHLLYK
T1 sequence (Q80T41 41-940): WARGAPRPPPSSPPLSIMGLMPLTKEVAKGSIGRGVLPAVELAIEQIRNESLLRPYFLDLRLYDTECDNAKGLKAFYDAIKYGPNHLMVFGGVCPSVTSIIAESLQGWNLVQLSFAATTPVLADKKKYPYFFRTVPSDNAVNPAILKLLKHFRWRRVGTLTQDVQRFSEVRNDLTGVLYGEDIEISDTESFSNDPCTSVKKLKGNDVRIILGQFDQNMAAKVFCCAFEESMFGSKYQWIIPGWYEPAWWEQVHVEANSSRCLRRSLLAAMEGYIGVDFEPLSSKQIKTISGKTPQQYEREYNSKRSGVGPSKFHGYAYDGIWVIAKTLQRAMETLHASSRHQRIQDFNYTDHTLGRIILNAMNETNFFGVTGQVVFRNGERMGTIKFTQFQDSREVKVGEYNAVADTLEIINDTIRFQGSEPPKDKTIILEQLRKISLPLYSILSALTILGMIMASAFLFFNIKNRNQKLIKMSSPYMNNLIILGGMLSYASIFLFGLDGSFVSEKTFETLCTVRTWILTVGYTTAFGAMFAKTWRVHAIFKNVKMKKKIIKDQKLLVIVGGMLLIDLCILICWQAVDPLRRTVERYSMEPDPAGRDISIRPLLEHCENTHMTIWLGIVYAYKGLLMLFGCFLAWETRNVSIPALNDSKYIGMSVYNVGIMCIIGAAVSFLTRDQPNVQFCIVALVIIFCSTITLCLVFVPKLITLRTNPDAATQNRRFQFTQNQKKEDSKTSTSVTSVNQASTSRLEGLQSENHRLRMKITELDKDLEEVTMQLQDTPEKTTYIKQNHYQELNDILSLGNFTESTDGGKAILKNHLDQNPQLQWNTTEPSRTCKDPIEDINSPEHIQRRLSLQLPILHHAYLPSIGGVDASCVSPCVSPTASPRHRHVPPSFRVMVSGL

Row | EC50 [1] [nM] | Emax ([1]; maximum reaction rate in presence of 0.3 μM GABA, test drug up to 30 μM, read-out: Efficacy (PAM Efficacy of GABAB)) [%] | Efficacy (PAM Efficacy of GABAB) ([1]; maximum reaction rate in presence of 0.3 μM GABA, test drug up to 30 μM) [%] | SMILES | MED [2] [mg/kg]
1 | 110 | 207 |  | Cc1nc(CN2CCS(=O)(=O)CC2)c2cc(C3CCC(C)(C)CC3)sc2n1 [Ex2, 6-(4,4-dimethylcyclohexyl)-4-[(1,1-dioxidothiomorpholin-4-yl)methyl]-2-methylthieno[2,3-d]pyrimidine] | 0.1
2 | 110 |  | 300 | Cc1nc(CN2CC[C@@H](O)[C@H](O)C2)c2cc(C3CCC(C)(C)CC3)sc2n1 (single isomer, unassigned) [Ex31, trans-1-{[6-(4,4-dimethylcyclohexyl)-2-methylthieno[2,3-d]pyrimidin-4-yl]methyl}piperidine-3,4-diol] | 1.0
